Source: the supplement of paper PMC10981050
“And” between values parts separate entries of the source, which are not always exact repeats. Equal entries are not always repeated. ± gives the standard deviation of the averaged measurements.

Assays:
Experiment in all cases: cell viability relative to vehicle control; higher = less cytotoxic
MARIMO = details: SRSF2 genotype: SRSF2 WT
Description: (§1)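 Isogenic SRSF2 WT and CRISPR SRSF2 P95 mutant clones of MOLM14, OCI-AML2 and MARIMO were exposed to ROCK inhibitors at 7 doses (0.037 to 29.9 µM) for 48 h. Viability was read by CellTiter-Glo luminescence and normalised to the vehicle control on each plate (%).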

MOLM14 = system: MOLM14
Description: as §1

OCI-AML2 = details: SRSF2 genotype: SRSF2 WT
Description: as §1

[1] = 0.037 µM, SRSF2 genotype: SRSF2 WT
[2] = 0.129 µM, SRSF2 genotype: SRSF2 WT
[3] = 0.369 µM, SRSF2 genotype: SRSF2 WT
[4] = 0.997 µM, SRSF2 genotype: SRSF2 WT
[5] = 3.49 µM, SRSF2 genotype: SRSF2 WT
[6] = 9.97 µM, SRSF2 genotype: SRSF2 WT
[7] = 29.9 µM, SRSF2 genotype: SRSF2 WT

CC1=C(C(=O)Nc2ccc3[nH]ncc3c2)C(c2ccc(F)cc2)NC(=O)N1 (stereo not given)
cell viability (MARIMO; 0.037 µM): 102.6 ± 0.94%
cell viability (MARIMO; 0.129 µM): 102 ± 2.7%
cell viability (MARIMO; 0.369 µM): 100 ± 2.2%
cell viability (MARIMO; 0.997 µM): 101 ± 4.8%
cell viability (MARIMO; 3.49 µM): 96.1 ± 2.5%
cell viability (MARIMO; 9.97 µM): 97.6 ± 13%
cell viability (MARIMO; 29.9 µM): 99.8 ± 5.5%
cell viability (MOLM14; [1]): 96.5 ± 12%
cell viability (MOLM14; [2]): 96.7 ± 4.2%
cell viability (MOLM14; [3]): 102 ± 14%
cell viability (MOLM14; [4]): 95.8 ± 12%
cell viability (MOLM14; [5]): 78.3 ± 14%
cell viability (MOLM14; [6]): 66.3 ± 14%
cell viability (MOLM14; [7]): 54.9 ± 10%
cell viability (OCI-AML2; 0.037 µM): 110 ± 6.1%
cell viability (OCI-AML2; 0.129 µM): 103 ± 7.4%
cell viability (OCI-AML2; 0.369 µM): 102 ± 4.6%
cell viability (OCI-AML2; 0.997 µM): 101 ± 6.8%
cell viability (OCI-AML2; 3.49 µM): 78.3 ± 5.9%
cell viability (OCI-AML2; 9.97 µM): 48.1 ± 6.7%
cell viability (OCI-AML2; 29.9 µM): 39 ± 4.3%

CC1=C(C(=O)Nc2cc3cn[nH]c3cc2F)C(c2ccc(C(F)(F)F)cc2)CC(=O)N1 (stereo not given)
cell viability (MARIMO; 0.037 µM): 103 ± 1.2%
cell viability (MARIMO; 0.129 µM): 100.4 ± 0.44%
cell viability (MARIMO; 0.369 µM): 96 ± 7.2%
cell viability (MARIMO; 0.997 µM): 103 ± 5.5%
cell viability (MARIMO; 3.49 µM): 98.9 ± 4.7%
cell viability (MARIMO; 9.97 µM): 92.2 ± 11%
cell viability (MARIMO; 29.9 µM): 95 ± 8.2%
cell viability (MOLM14; 0.037 µM, SRSF2 genotype: SRSF2 P95 mutant): 112% and 102% and 97.1%
cell viability (MOLM14; [1]): 94 ± 18%
cell viability (MOLM14; 0.129 µM, SRSF2 genotype: SRSF2 P95 mutant): 107% and 105% and 103%
cell viability (MOLM14; [2]): 96.4 ± 9.5%
cell viability (MOLM14; [3]): 90.1 ± 19%
cell viability (MOLM14; [4]): 82.5 ± 16%
cell viability (MOLM14; [5]): 66.2 ± 16%
cell viability (MOLM14; [6]): 60.3 ± 14%
cell viability (MOLM14; [7]): 53 ± 13%
cell viability (OCI-AML2; 0.037 µM): 107 ± 1.6%
cell viability (OCI-AML2; 0.129 µM): 101 ± 5%
cell viability (OCI-AML2; 0.369 µM): 96.9 ± 7.2%
cell viability (OCI-AML2; 0.997 µM): 93.11 ± 0.21%
cell viability (OCI-AML2; 3.49 µM): 68 ± 7.8%
cell viability (OCI-AML2; 9.97 µM): 43.5 ± 9.3%
cell viability (OCI-AML2; 29.9 µM): 39.4 ± 6%

C[C@@H](N)c1ccc(C(=O)Nc2ccnc3[nH]ccc23)cc1
cell viability (MARIMO; 0.037 µM): 99.5 ± 4.6%
cell viability (MARIMO; 0.129 µM): 101 ± 3.1%
cell viability (MARIMO; 0.369 µM): 96.2 ± 1.6%
cell viability (MARIMO; 0.997 µM): 101 ± 1.3%
cell viability (MARIMO; 3.49 µM): 93.99 ± 0.9%
cell viability (MARIMO; 9.97 µM): 84.1 ± 7.2%
cell viability (MARIMO; 29.9 µM): 35.1 ± 0.58%
cell viability (MOLM14; [1]): 90.1 ± 21%
cell viability (MOLM14; [2]): 94 ± 13%
cell viability (MOLM14; [3]): 87.1 ± 18%
cell viability (MOLM14; [4]): 81.4 ± 17%
cell viability (MOLM14; [5]): 51.8 ± 14%
cell viability (MOLM14; [6]): 29.4 ± 7.5%
cell viability (MOLM14; [7]): 7.13 ± 1.6%
cell viability (OCI-AML2; 0.037 µM): 104 ± 7.8%
cell viability (OCI-AML2; 0.129 µM): 99.9 ± 1%
cell viability (OCI-AML2; 0.369 µM): 93.2 ± 4.4%
cell viability (OCI-AML2; 0.997 µM): 85 ± 1.9%
cell viability (OCI-AML2; 3.49 µM): 52 ± 2%
cell viability (OCI-AML2; 9.97 µM): 30.4 ± 4.6%
cell viability (OCI-AML2; 29.9 µM): 7.89 ± 0.6%
